Data taken from PubChem BioAssay (NCI).
Values joined by “and” are separate entries in the source; they are usually repeats but may differ in a detail not shown here. Identical values can stand only once.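 Growth conditions: 96-well plates. Treatment: test compound, 48 hours, 5 concentrations. Analysis: linear interpolation between bracketing concentrations; unreached endpoints set to highest concentration. At the GI50, growth is halved. At the TGI there is no net growth.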

Key:
Assay in all cases: NCI tumour cell line growth inhibition, 48 h
COLO 205 colon = test system: COLO 205 colon
SK-MEL-28 melanoma = test system: SK-MEL-28 melanoma
ACHN renal = test system: ACHN renal
XF 498 CNS = test system: XF 498 CNS
DMS 273 small cell lung = test system: DMS 273 small cell lung
NCI-H226 lung = test system: NCI-H226 lung
MOLT-4 leukemia = test system: MOLT-4 leukemia
K-562 leukemia = test system: K-562 leukemia
SK-MEL-2 melanoma = test system: SK-MEL-2 melanoma
NCI-H460 lung = test system: NCI-H460 lung

| SMILES | GI50 (COLO 205 colon) [µM] | TGI (SK-MEL-28 melanoma) | GI50 (ACHN renal) [µM] | TGI (XF 498 CNS) [µM] | TGI (DMS 273 small cell lung) [µM] | TGI (NCI-H226 lung) | TGI (MOLT-4 leukemia) | TGI (COLO 205 colon) [µM] | TGI (ACHN renal) [µM] | TGI (K-562 leukemia) [µM] | TGI (SK-MEL-2 melanoma) [µM] | TGI (NCI-H460 lung) [µM] | GI50 (MOLT-4 leukemia) [µM] | GI50 (SK-MEL-28 melanoma) [µM] | GI50 (K-562 leukemia) [µM] | GI50 (SK-MEL-2 melanoma) [µM] | GI50 (NCI-H460 lung) [µM] | GI50 (NCI-H226 lung) [µM] |
| --- | --- | --- | --- | --- | --- | --- | --- | --- | --- | --- | --- | --- | --- | --- | --- | --- | --- | --- |
| Nc1ccc2cc3ccc(N)cc3nc2c1 | 0.936 | 5.11 µM [middle of 4 runs] | 0.609 | 5.8 | 3.33 | 4.3 µM [middle of 4 runs] |  |  |  |  |  |  |  |  |  |  |  |  |
| C/C(N=NC(=S)N(C)C)=C1\C=CC=CN1O |  | > 100 µM |  |  | > 100 | > 100 µM | > 56.4 µM | > 100 | > 100 | > 100 | > 56.2 | > 100 |  |  |  |  |  |  |
| Cc1c(C(=O)/C=C/c2ccccc2)[n+](=O)c2ccccc2n1[O-] |  | 31 µM |  | 24.6 | 30.1 | 39.2 µM | 54.6 µM | 29.8 | 33.6 | 51.9 |  | 35.6 |  |  |  |  |  |  |
| c1ccc(C2Nc3ccccc3C3OCCCC23)cc1 (centres undefined) |  |  |  | > 100 | 97.1 | 68.3 µM | > 100 µM | > 100 | > 100 | > 100 | 82.2 |  |  |  |  |  |  |  |
| C/C(CC(=O)NCCc1ccccc1)=N\NC(=O)C[n+]1ccccc1 |  | > 100 µM |  | > 100 | > 100 | > 100 µM | > 100 µM | > 100 | > 100 | > 100 | > 100 | > 100 |  |  |  |  |  |  |
| NC(=O)NCc1c(C(N)=O)ncn1Cc1ccccc1 |  | > 100 µM |  | > 100 | > 100 |  | > 100 µM | > 100 | > 100 | > 100 |  | > 100 |  |  |  |  |  |  |
| CC(C)C[C@H](NC(=O)/C=C/Cn1ccc2ccccc2c1=O)B(O)O | 5.93 | 36 µM | 3.33 |  |  | 3.63 µM | 12.5 µM | > 100 | > 100 | > 100 | 23.5 | 97.5 | 2.73 | 3.85 | 6 | 3.12 | 12.7 | 1.76 |
| COc1ccc(/C=C/c2cc(OC)cc(=O)o2)cc1 |  | > 100 µM |  |  |  | > 100 µM | > 100 µM | > 100 | > 100 | > 100 | > 100 | > 100 |  |  |  |  |  |  |
| S=C1OC2CCCC[C@H]2O1 (some centres undefined) |  | > 100 µM |  | > 100 | > 100 | > 100 µM | > 100 µM | > 100 | > 100 | > 100 | > 100 | > 100 |  |  |  |  |  |  |
| O=S(=O)(Nc1cc(Sc2cccc3cccnc23)c(O)c2ccccc12)c1ccccc1 | 1.71 | 5.57 µM | 0.772 |  |  | 25.4 µM | 5.53 µM | 3.7 | 5.54 | 16.5 | 13.4 | 13.7 | 0.546 | 0.801 | 0.929 | 2.48 | 0.499 | 2.45 |
| CC/C=C\C[C@H]1C/C=C2/C(=O)C=C[C@@H]2C/C=C\CCCC(=O)O1 | 0.708 | 3.07 µM | 0.197 |  |  | 4.75 µM | 5.21 µM | 2.64 | 0.393 | > 54.5 | 4.87 | 8.86 | 0.604 | 0.791 | 0.353 | 1.86 | 2.16 | 1.94 |
| C[C@H](O)C(=O)N1CCC(CCn2c(Sc3cc4c(cc3Br)OCO4)nc3c(N)ncnc32)CC1 | 0.467 | > 100 µM | 0.84 |  |  | > 100 µM | 11.8 µM | > 100 | > 100 | > 100 | > 100 | > 100 | 0.55 | 1.49 | 0.472 | 4.63 | 0.432 | 4.01 |
| O=C1/C(=C/c2cccc([N+](=O)[O-])c2)COc2ccc(Br)cc21 |  | > 100 µM |  | > 100 | > 100 |  | 96 µM | > 100 | > 100 | > 100 | > 100 | > 100 |  |  |  |  |  |  |
| Cc1ccc2[nH]c(O)c(N=Nc3ccc(S(N)(=O)=O)cc3)c2c1 | > 24.2 | > 25 µM | 9.74 |  |  | > 25 µM | > 25 µM | > 25 | > 25 | > 25 | > 25 | > 25 | > 21.5 | 24.4 | 13.8 | > 25 | 6.86 | 7.92 |
| C=CC/C=C/C/C=C/CCCCCCCc1cccc(O)c1C(=O)O |  | 89.6 µM |  | > 100 | > 100 |  | > 100 µM | > 100 | > 100 | > 100 | > 100 | > 100 |  |  |  |  |  |  |
| Nc1nc(F)nc2c1ncn2C1OC(CO)C(O)C1O (centres undefined) | 27.8 | > 100 µM | 23.2 |  |  | > 100 µM | > 100 µM | > 100 | > 100 | > 100 | > 100 | > 100 |  | > 100 |  |  | 43.2 |  |
| CCOc1cc(C(C)(C)C)ccc1C1=N[C@@](C)(c2ccc(Cl)cc2)[C@@](C)(c2ccc(Cl)cc2)N1C(=O)N1CCN(CCCS(C)(=O)=O)CC1 | 9.53 | 19.3 µM | 0.505 |  |  | 2.11 µM | > 100 µM | 32.6 | 11.3 | > 100 | 30 | 11.8 | 0.375 | 6.1 | 3.71 | 9.14 | 0.895 | 0.462 |
| CCCSc1nc(COC(=O)NC)c(COC(=O)NC)n1C |  | > 100 µM |  | > 100 | > 100 | > 100 µM | 56.6 µM and > 70 µM | > 100 | 72.3 | > 100 | > 100 | > 100 |  |  |  |  |  |  |
